In paper PMC10600185, “Development and pharmaceutical investigation of novel cervical cancer-targeting and redox-responsive melittin conjugates” (Scientific Reports, 2023):
In brackets after ≈: the same amount, converted by molar mass.

How the values were obtained:
human red blood cells = assay: Hemolytic activity; assay type: cell-based; settings: human erythrocytes in tris-saline pH 7.2, 256–4 µg/mL, 37 °C, 1 h, absorbance 414 nm, triplicate
Experimental: 30 µL of fresh human blood was added to 10 mL of autoclaved tris-saline (10 mM tris, 150 mM NaCl, pH 7.2) and centrifuged at 1500 rpm for 5 min three times. 100 µL of the blood mix was added to each well of a round-bottom 96-well plate. Concentrations of freshly prepared peptide/conjugate (i.e., ranging from 256–4 µg/mL) in tris-saline (100 µL of total volume) were added to the 96-well plate containing the blood mix and the plate kept at 37 °C for 1 h. Triton X-100 in 10% DMSO-treated blood mix and blood mix without addition were used as positive and negative controls, respectively. Next, the plate was centrifuged for 10 min at 1500 rpm. The supernatants were taken into a new round-bottom 96-well plate and measured at 414 nm using a microplate reader. All samples were used as a triplicate.

[1] = HPLC % ACN at elution as measure of hydrophobicity; assay type: physicochemical; settings: semi-preparative RP-HPLC, C-18 column; for HPLC gradient (ACN %) of the purified peak: 0–100% ACN (0.025% TFA) gradient, 30 min for FA conjugates, 40 min for Target conjugates, % ACN used as hydrophobicity
Experimental: The peptide/conjugate was purificated and analyzed (data not shown) using HPLC (Agilent Technologies, USA) with C-18 column (RPC 250 × 10 mm ID hydrophobic 6 µm, Agilent VariTide). For the CM–FA and MC–FA conjugates’ purification, we used a 0–100% ACN (0.025% TFA) gradient for 30 min, and for the CM–Target, and MC–Target conjugates, we used a 0–100% ACN (0.025% TFA) gradient for 40 min. Peptide methods for HPLC purification are provided in Supp. Data 1. A Nicolet iS10 FT-IR was used to obtain infrared spectra of the peptide/conjugates in the range of 4000–500 cm^−1. The chemical structure of the peptide/conjugates was characterized by proton nuclear resonance (^1H NMR) spectroscopy using a 400-MHz Burker NMR spectrometer in DMSO-d6. To evaluate the molecular weight of the synthesized peptide, LC–MS/MS (6420 Triple Quad, Agilent Technologies) was used.

[2] = MTT cytotoxicity assay, 3T3; assay type: cell-based; settings: mouse, 3T3 cells (embryonic fibroblasts), 24 h treatment, serial dilutions 256–1 µg/mL, concentration by modified Mel peptide content, mean of three replicates
Experimental: (§1) C-33A ([…], ATCC), HeLa ([…], ATCC), 3T3 (CRL-1658™, ATCC), Normal Skin Fibroblast (CRL-2091™, ATCC) and MCF-7 (HTB-22™, ATCC) cell lines were cultured in complete EMEM, DMEM, DMEM, EMEM, and EMEM (containing 1% Pen/Strep antibiotic and 10% FBS), respectively. Cells from the different lines were seeded at a density of 5 × 10^4 cells/well in 100 µL medium placed in a flat-bottom 96-well plate and incubated at 5% CO2 and 37 °C. After 24 h, the medium was discarded from the 96-well plate. Serial dilutions of peptide/conjugate (i.e., 256–1 µg/mL) were prepared in triplicate in 100 µL complete medium then added onto each well and incubated at 5% CO2 and 37 °C for 24 h. The cytotoxicity was determined by MTT test (MTT, Cell Proliferation Kit, Roche) and measured at 550–690 nm on a microplate reader. The cell cytotoxicity was calculated with respect to control groups treated with only complete medium.

[3] = MTT cytotoxicity assay, NSF; assay type: cell-based; settings: human, normal skin fibroblast (NSF) cells, 24 h treatment, serial dilutions 256–1 µg/mL, concentration by modified Mel peptide content, mean of three replicates
Experimental: as §1

C33A cells = assay: ROS assay (DCFDA), C33A; assay type: cell-based, human; settings: 200 µM TBHP positive control, Ex/Em 485/535 nm, data not shown
Experimental: (§2) To evaluate the ROS activity of peptide/conjugates, a ROS kit (DCFDA/H2DCFDA—Cellular ROS Assay Kit, Abcam) was applied to C33A, HeLa, and Normal Skin Human Fibroblast cells. 25,000 cells/well were seeded on a flat-bottom 96-well plate and incubated at 37 °C and 5% CO2. After 24 h, the media was discarded, and the wells were washed with 1 × buffer. DCFDA was then added to wells (except for non-stained control cells) and all plates were incubated for 45 min at 37 °C and 5% CO2 in the dark. […] A positive control (TBHP) was also applied. The results were assessed using a microplate reader (Varioskan Flash, Thermo Scientific) at Ex/Em: 485/535 nm. The negative control (non-stained cells) was subtracted from the cell control and drug samples for calculation.

NSF cells = assay: ROS assay (DCFDA), NSF; assay type: cell-based, human; settings: 200 µM TBHP positive control, Ex/Em 485/535 nm, data not shown
Experimental: as §2

HeLa cells = assay: ROS assay (DCFDA), HeLa; assay type: cell-based, human; settings: 200 µM TBHP positive control, Ex/Em 485/535 nm, data not shown
Experimental: as §2

E. coli 25922 = assay: Minimum inhibitory concentration, E. coli; assay type: cell-based, Escherichia coli; set-up: key: No inhibitory effects were observed at any of the concentrations tested in the areas marked “X” and bacterial growth was seen; settings: MHB, two-fold dilutions 1024–0.5 µg/mL, 37 °C overnight, OD 600 nm
Experimental: (§3) The MIC of the conjugates on E. coli and S. aureus were determined. 95 µL of the MHB containing serial two-fold dilutions of each peptide/conjugate were added to a round-bottom 96-well plate from a maximum concentration of 1024 µg/mL to 0.5 µg/mL. Bacterial samples were taken from an exponentially growing culture in MHB and adjusted to 1.5 × 10^6 CFU/mL. 5 µL of the prepared bacterial suspension was added to each well and incubated at 37 °C, overnight. The bacterial growth was measured using a microplate reader (Gen5 Synergy HT, Biotek) at 600 nm. Broth containing only bacteria was used as a positive control while broth without bacteria was used as a negative control.

cell lines = assay: Cytotoxicity of the targeting peptide alone on the cell lines; assay type: cell-based; settings: tested alone on cell lines, data not shown
Experimental: as §1

S. aureus 25923 = assay: Minimum inhibitory concentration, S. aureus; assay type: cell-based, Staphylococcus aureus; set-up: key: No inhibitory effects were observed at any of the concentrations tested in the areas marked “X” and bacterial growth was seen; settings: MHB, two-fold dilutions 1024–0.5 µg/mL, 37 °C overnight, OD 600 nm
Experimental: as §3

Row | Compound | HPLC gradient (ACN %) of the purified peak [1] | IC50 at 24 h [2] [µg/mL] | IC50 at 24 h [3] [µg/mL] | other results
1 | CC[C@H](C)[C@H](NC(=O)CNC(=O)[C@@H](N)CS)C(=O)NCC(=O)N[C@@H](C)C(=O)N[C@H](C(=O)N[C@@H](CC(C)C)C(=O)N[C@@H](CCCCN)C(=O)N[C@H](C(=O)N[C@@H](CC(C)C)C(=O)N[C@H](C(=O)N[C@H](C(=O)NCC(=O)N[C@@H](CC(C)C)C(=O)N1CCC[C@H]1C(=O)N[C@@H](C)C(=O)N[C@@H](CC(C)C)C(=O)N[C@H](C(=O)N[C@@H](CO)C(=O)N[C@@H](Cc1c[nH]c2ccccc12)C(=O)N[C@H](C(=O)N[C@@H](CCCCN)C(=O)N[C@@H](CCCNC(=N)N)C(=O)N[C@@H](CCCCN)C(=O)N[C@@H](CCCNC(=N)N)C(=O)N[C@@H](CCC(N)=O)C(=O)N[C@@H](CCC(N)=O)C(N)=O)[C@@H](C)CC)[C@@H](C)CC)[C@@H](C)O)[C@@H](C)O)C(C)C)C(C)C [C-Mel] | 77–79% | 84 (≈ 28.5 µM) | 53.4 (≈ 18.1 µM) | Hemotoxicity ranking among peptides/conjugates (human red blood cells): highest hemotoxicity
2 | CC[C@H](C)[C@H](NC(=O)CN)C(=O)NCC(=O)N[C@@H](C)C(=O)N[C@H](C(=O)N[C@@H](CC(C)C)C(=O)N[C@@H](CCCCN)C(=O)N[C@H](C(=O)N[C@@H](CC(C)C)C(=O)N[C@H](C(=O)N[C@H](C(=O)NCC(=O)N[C@@H](CC(C)C)C(=O)N1CCC[C@H]1C(=O)N[C@@H](C)C(=O)N[C@@H](CC(C)C)C(=O)N[C@H](C(=O)N[C@@H](CO)C(=O)N[C@@H](Cc1c[nH]c2ccccc12)C(=O)N[C@H](C(=O)N[C@@H](CCCCN)C(=O)N[C@@H](CCCNC(=N)N)C(=O)N[C@@H](CCCCN)C(=O)N[C@@H](CCCNC(=N)N)C(=O)N[C@@H](CCC(N)=O)C(=O)N[C@@H](CCC(N)=O)C(N)=O)[C@@H](C)CC)[C@@H](C)CC)[C@@H](C)O)[C@@H](C)O)C(C)C)C(C)C [Mel, Melittin] | 63–72% |  |  | Hydrophobicity as % ACN at elution ([1]; ACN (0.025% TFA) gradient): 67 % ACN
3 | CC[C@H](C)[C@H](NC(=O)CN)C(=O)NCC(=O)N[C@@H](C)C(=O)N[C@H](C(=O)N[C@@H](CC(C)C)C(=O)N[C@@H](CCCCN)C(=O)N[C@H](C(=O)N[C@@H](CC(C)C)C(=O)N[C@H](C(=O)N[C@H](C(=O)NCC(=O)N[C@@H](CC(C)C)C(=O)N1CCC[C@H]1C(=O)N[C@@H](C)C(=O)N[C@@H](CC(C)C)C(=O)N[C@H](C(=O)N[C@@H](CO)C(=O)N[C@@H](Cc1c[nH]c2ccccc12)C(=O)N[C@H](C(=O)N[C@@H](CCCCN)C(=O)N[C@@H](CCCNC(=N)N)C(=O)N[C@@H](CCCCN)C(=O)N[C@@H](CCCNC(=N)N)C(=O)N[C@@H](CCC(N)=O)C(=O)N[C@@H](CCC(N)=O)C(=O)N[C@@H](CS)C(N)=O)[C@@H](C)CC)[C@@H](C)CC)[C@@H](C)O)[C@@H](C)O)C(C)C)C(C)C [Mel-C] | 77–79% | 130 (≈ 44.2 µM) | 43.7 (≈ 14.8 µM) | 
4 | CC(C)(C)OO [TBHP] |  |  |  | ROS level, C33A (C33A cells): 60.70 RFU; ROS level, NSF (NSF cells): 36.46 RFU; ROS level, HeLa (HeLa cells): 51.26 RFU
5 | CKQNLAEG [Targeting peptide, CSP-KQ peptide (CKQNLAEG), specific to cervical squamous cell carcinoma tissue] | 53–57% |  |  | Minimum inhibitory concentration, E. coli 25922 (E. coli 25922): X; Toxicity of the peptide alone on cell lines (cell lines): non-toxic; Minimum inhibitory concentration, S. aureus 25923 (S. aureus 25923): X
